Patent US10300026B2, “Use of dihydroxyacetone in preparation of anti-cancer medicaments” (priority 2015, dated 2019)
Where two headings read alike, the source gives them in different places.

Key:
Assay type in all cases: cell-based
A2780 = assay: CellTiter-Glo cell viability, A2780 (human ovarian cancer cell line)
Description: (§1) 15 g of the commercially available 1,3-dihydroxyacetone in the solid powder form was added into 100 mL of 5% glucose (infusion bottle), then filled into 100 bottles.
(§2) After digesting the cells and counting (counting suspended cells directly), the cells were diluted to 1.25×10^5 cells/ml, inoculated into a 384-well plate (5000 cells/well) with 40 μl per well, centrifuged at 1500 rpm for 1 min, placed into the incubator and incubated overnight.
(§3) The medicaments were diluted in gradient with a 5% glucose solution to 5×, respectively. Each well was dosed with 10 μl medicament, with 4 wells (n=4) for each concentration. The cell viability was measured with Luminescence Cell Viability Assay kit after incubating for 72 hours in an incubator.
(§4) CellTiter-Glo reagent was added into each well, the volume of which is the same as that of medium. It was shaked on a shaker for 5 min, centrifuged at 1500 rpm for 1 min, and incubated in the dark at room temperature for 15 min. Then the chemiluminescence was detected with BMG PHERAstar.
(§5) The cell viability was calculated by using the following formula: Cell viability (Viability %)=100%×(LUMsample to be measured−LUMblank)/(LUMsolvent control−LUMblank)
(§6) The curve of Log[concentration] versus cell viability was fitted using Prism 6 to calculate IC50 of sample for each cell line.

SMMC-7721 = assay: CellTiter-Glo cell viability, SMMC-7721 (human hepatoma cell line)
Description: as §1, §2, §3, §4, §5, §6

BEL-7402 = assay: CellTiter-Glo cell viability, BEL-7402 (human hepatoma cell line)
Description: as §1, §2, §3, §4, §5, §6

HCCLM3 = assay: CellTiter-Glo cell viability, HCCLM3 (human high metastatic hepatoma cell)
Description: as §1, §2, §3, §4, §5, §6

HCC1937 = assay: CellTiter-Glo cell viability, HCC1937 (human breast cancer cell)
Description: as §1, §2, §3, §4, §5, §6

H460 = assay: CellTiter-Glo cell viability, H460 (human large cell lung cancer cell line)
Description: as §1, §2, §3, §4, §5, §6

HT29 = assay: CellTiter-Glo cell viability, HT29 (human colon cancer cell line)
Description: as §1, §2, §3, §4, §5, §6

TF1-α = assay: CellTiter-Glo cell viability, TF1-α (human erythroleukemia cell)
Description: as §1, §2, §3, §4, §5, §6

DU145 = assay: CellTiter-Glo cell viability, DU145 (human prostate cancer cell)
Description: as §1, §2, §3, §4, §5, §6

HepG2 = assay: CellTiter-Glo cell viability, HepG2 (human hepatoma cell line)
Description: as §1, §2, §3, §4, §5, §6

A673 = assay: CellTiter-Glo cell viability, A673 (human rhabdomyoma cell)
Description: as §1, §2, §3, §4, §5, §6

S180 = assay: CellTiter-Glo cell viability, S180 (S180 sarcoma cells)
Description: as §1, §2, §3, §4, §5, §6

WIL2-S = assay: CellTiter-Glo cell viability, WIL2-S (human B lymphocyte)
Description: as §1, §2, §3, §4, §5, §6

Calu-6 = assay: CellTiter-Glo cell viability, Calu-6 (human degenerative cancer cell)
Description: as §1, §2, §3, §4, §5, §6

U87MG = assay: CellTiter-Glo cell viability, U87MG (human spongioblastoma cell line)
Description: as §1, §2, §3, §4, §5, §6

SW480 = assay: CellTiter-Glo cell viability, SW480 (human colorectal cancer cell)
Description: as §1, §2, §3, §4, §5, §6

A549 = assay: CellTiter-Glo cell viability, A549 (human non-small cell lung cancer cell)
Description: as §1, §2, §3, §4, §5, §6

C-33A = assay: CellTiter-Glo cell viability, C-33A (human cervical cancer cell)
Description: as §1, §2, §3, §4, §5, §6

SGC7901 = assay: CellTiter-Glo cell viability, SGC7901 (human gastric adenocarcinoma cell)
Description: as §1, §2, §3, §4, §5, §6

SH-SY5Y = assay: CellTiter-Glo cell viability, SH-SY5Y (human neuroblastoma cell)
Description: as §1, §2, §3, §4, §5, §6

HL-60 = assay: CellTiter-Glo cell viability, HL-60 (human leukemic cell line)
Description: as §1, §2, §3, §4, §5, §6

Caki-1 = assay: CellTiter-Glo cell viability, Caki-1 (human renal clear cell carcinoma skin metastatic cell)
Description: as §1, §2, §3, §4, §5, §6

KB = assay: CellTiter-Glo cell viability, KB (human oral cancer cell line)
Description: as §1, §2, §3, §4, §5, §6

PANC-1 = assay: CellTiter-Glo cell viability, PANC-1 (human pancreatic cancer cell line)
Description: as §1, §2, §3, §4, §5, §6

RPMI8226 = assay: CellTiter-Glo cell viability, RPMI8226 (multiple myeloma)
Description: as §1, §2, §3, §4, §5, §6

Jurkat = assay: CellTiter-Glo cell viability, Jurkat (human T lymphoblastic leukemia cell)
Description: as §1, §2, §3, §4, §5, §6

SW620 = assay: CellTiter-Glo cell viability, SW620 (human colon cancer cell)
Description: as §1, §2, §3, §4, §5, §6

TT = assay: CellTiter-Glo cell viability, TT (human thyroid cancer cell); settings: 72 hours
Description: as §1, §2, §3, §4, §5, §6

A431 = assay: CellTiter-Glo cell viability, A431 (human cutaneous squamous cell carcinoma)
Description: as §1, §2, §3, §4, §5, §6

[1] = Homo sapiens, 72 h, read-out: IC50 calculated based on the concentration of dihydroxyacetone

O=C(CO)CO [Dihydroxyacetone, 1,3-dihydroxyacetone]
IC50 (A2780; Homo sapiens, A2780, 72 h, read-out: IC50 calculated based on the concentration of dihydroxyacetone): 10600 µM | IC50 (SMMC-7721; Homo sapiens, SMMC-7721, 72 h, read-out: IC50 calculated based on the concentration of dihydroxyacetone): 5090 µM | IC50 (BEL-7402; Homo sapiens, Bel-7402, 72 h, read-out: IC50 calculated based on the concentration of dihydroxyacetone): 6820 µM | IC50 (HCCLM3; Homo sapiens, HCCLM3, 72 h, read-out: IC50 calculated based on the concentration of dihydroxyacetone): 5480 µM | IC50 (HCC1937; Homo sapiens, HCC1937, 72 h, read-out: IC50 calculated based on the concentration of dihydroxyacetone): 10200 µM | IC50 (H460; Homo sapiens, NCI-H460, 72 h, read-out: IC50 calculated based on the concentration of dihydroxyacetone): 3790 µM | IC50 (HT29; Homo sapiens, HT-29, 72 h, read-out: IC50 calculated based on the concentration of dihydroxyacetone): 4370 µM | IC50 (TF1-α; Homo sapiens, TF-1, 72 h, read-out: IC50 calculated based on the concentration of dihydroxyacetone): 4890 µM | IC50 (DU145; Homo sapiens, DU-145, 72 h, read-out: IC50 calculated based on the concentration of dihydroxyacetone): 7680 µM | IC50 (HepG2; Homo sapiens, HepG2, 72 h, read-out: IC50 calculated based on the concentration of dihydroxyacetone): 12100 µM | IC50 (A673; Homo sapiens, A673, 72 h, read-out: IC50 calculated based on the concentration of dihydroxyacetone): 3770 µM | IC50 (S180; S-180, 72 h, read-out: IC50 calculated based on the concentration of dihydroxyacetone): 950 µM | IC50 (WIL2-S; Homo sapiens, Lymphocyte, 72 h, read-out: IC50 calculated based on the concentration of dihydroxyacetone): 12100 µM | IC50 (Calu-6; Homo sapiens, Calu-6, 72 h, read-out: IC50 calculated based on the concentration of dihydroxyacetone): 11000 µM | IC50 (U87MG; Homo sapiens, U-87 MG, 72 h, read-out: IC50 calculated based on the concentration of dihydroxyacetone): 9210 µM | IC50 (SW480; Homo sapiens, SW480, 72 h, read-out: IC50 calculated based on the concentration of dihydroxyacetone): 7950 µM | IC50 (A549; Homo sapiens, A549, 72 h, read-out: IC50 calculated based on the concentration of dihydroxyacetone): 4390 µM | IC50 (C-33A; Homo sapiens, C-33-A, 72 h, read-out: IC50 calculated based on the concentration of dihydroxyacetone): 5090 µM | IC50 (SGC7901; Homo sapiens, SGC-7901, 72 h, read-out: IC50 calculated based on the concentration of dihydroxyacetone): 3740 µM | IC50 (SH-SY5Y; [1]): 1810 µM | IC50 (HL-60; Homo sapiens, HL-60, 72 h, read-out: IC50 calculated based on the concentration of dihydroxyacetone): 2780 µM | IC50 (Caki-1; Homo sapiens, CAKI-1, 72 h, read-out: IC50 calculated based on the concentration of dihydroxyacetone): 10000 µM | IC50 (KB; [1]): 7510 µM | IC50 (PANC-1; Homo sapiens, PANC-1, 72 h, read-out: IC50 calculated based on the concentration of dihydroxyacetone): 7360 µM | IC50 (RPMI8226; Homo sapiens, RPMI-8226, 72 h, read-out: IC50 calculated based on the concentration of dihydroxyacetone): 1810 µM | IC50 (Jurkat; [1]): 1830 µM | IC50 (SW620; Homo sapiens, SW-620, 72 h, read-out: IC50 calculated based on the concentration of dihydroxyacetone): 8540 µM | IC50 (TT; Homo sapiens, n=4, read-out: IC50 calculated based on the concentration of dihydroxyacetone): 3620 µM | IC50 (A431; Homo sapiens, A-431, 72 h, read-out: IC50 calculated based on the concentration of dihydroxyacetone): 5640 µM

N.N.[Cl][Pt][Cl] [DDP, cis-diammine platinum dichloride, reference compound]
IC50 (A2780; A2780, 72 hours, n=4, read-out: IC50): 32.2 µM | IC50 (SMMC-7721; SMMC-7721, 72 hours, n=4, read-out: IC50): 6.19 µM | IC50 (BEL-7402; BEL-7402, 72 hours, n=4, read-out: IC50): 5.37 µM | IC50 (HCCLM3; HCCLM3, 72 hours, n=4, read-out: IC50): 183 µM | IC50 (HCC1937; HCC1937, 72 hours, n=4, read-out: IC50): 14.8 µM | IC50 (H460; H460, 72 hours, n=4, read-out: IC50): 1.67 µM | IC50 (HT29; HT29, 72 hours, n=4, read-out: IC50): 48.6 µM | IC50 (TF1-α; TF1-α, 72 hours, n=4, read-out: IC50): 3.76 µM | IC50 (DU145; DU145, 72 hours, n=4, read-out: IC50): 4.54 µM | IC50 (HepG2; HepG2, 72 hours, n=4, read-out: IC50): 13.9 µM | IC50 (A673; A673, 72 hours, n=4, read-out: IC50): 1.11 µM | IC50 (S180; S180, 72 hours, n=4, read-out: IC50): 0.26 µM | IC50 (WIL2-S; WIL2-S, 72 hours, n=4, read-out: IC50): 9.89 µM | IC50 (Calu-6; Calu-6, 72 hours, n=4, read-out: IC50): 220 µM | IC50 (U87MG; U87MG, 72 hours, n=4, read-out: IC50): 24 µM | IC50 (SW480; SW480, 72 hours, n=4, read-out: IC50): 16.7 µM | IC50 (A549; A549, 72 hours, n=4, read-out: IC50): 4.1 µM | IC50 (C-33A; C-33A, 72 hours, n=4, read-out: IC50): 2.85 µM | IC50 (SGC7901; SGC7901, 72 hours, n=4, read-out: IC50): 24 µM | IC50 (SH-SY5Y; 72 hours, n=4, read-out: IC50): 2.89 µM | IC50 (HL-60; HL-60, 72 hours, n=4, read-out: IC50): 1.82 µM | IC50 (Caki-1; Caki-1, 72 hours, n=4, read-out: IC50): 13.1 µM | IC50 (KB; 72 hours, n=4, read-out: IC50): 2 µM | IC50 (PANC-1; PANC-1, 72 hours, n=4, read-out: IC50): 22.4 µM | IC50 (RPMI8226; RPMI8226, 72 hours, n=4, read-out: IC50): 5.79 µM | IC50 (Jurkat; 72 hours, n=4, read-out: IC50): 0.66 µM | IC50 (SW620; SW620, 72 hours, n=4, read-out: IC50): 24.4 µM | IC50 (TT; n=4, read-out: IC50): 9.72 µM | IC50 (A431; A431, 72 hours, n=4, read-out: IC50): 9.29 µM
